Format in all cases: functional
Test [1] concerns UO-31. As to the kind of experiment: Growth inhibition of human UO31 cells assessed as cell growth at 10 uM after 48 hrs by sulforhodamine B assay. The conditions noted are these: UO-31, 48 h, read-out: Activity. (In general: In SRB staining, fixed cells bind dye roughly in proportion to their protein.)
The subject of test [2] is HOP-62. As to the kind of experiment: Growth inhibition of human HOP62 cells assessed as cell growth at 10 uM after 48 hrs by sulforhodamine B assay. Particulars: HOP-62, 48 h, read-out: Activity.
Test [3] relates to Malme-3M. Kind of test: Growth inhibition of human MALME-3M cells assessed as cell growth at 10 uM after 48 hrs by sulforhodamine B assay. The conditions noted are these: read-out: Activity.
Test [4] has as its system M14. Kind of test: Growth inhibition of human M14 cells assessed as cell growth at 10 uM after 48 hrs by sulforhodamine B assay. The conditions noted are these: M14, 48 h, read-out: Activity.
Test [5] concerns 786-0. Kind of test: Growth inhibition of human 786-0 cells assessed as cell growth at 10 uM after 48 hrs by sulforhodamine B assay. The conditions noted are these: 786-0, 48 h, read-out: Activity.
In test [6] the test system is SF-268. As to the kind of experiment: Growth inhibition of human SF268 cells assessed as cell growth at 10 uM after 48 hrs by sulforhodamine B assay. The conditions noted are these: SF-268, 48 h, read-out: Activity.
In test [7] the test system is PC-3. Kind of test: Growth inhibition of human PC3 cells assessed as cell growth at 10 uM after 48 hrs by sulforhodamine B assay. Particulars: PC-3, 48 h, read-out: Activity.
In test [8] the test system is HT-29. Kind of test: Growth inhibition of human HT-29 cells assessed as cell growth at 10 uM after 48 hrs by sulforhodamine B assay. The conditions noted are these: HT-29, 48 h, read-out: Activity.
Test [9] relates to NCI-H23. Kind of test: Growth inhibition of human NCI-H23 cells assessed as cell growth at 10 uM after 48 hrs by sulforhodamine B assay. The conditions noted are these: NCI-H23, 48 h, read-out: Activity.
Test [10] concerns SK-OV-3. As to the kind of experiment: Growth inhibition of human SKOV3 cells assessed as cell growth at 10 uM after 48 hrs by sulforhodamine B assay. Particulars: SK-OV-3, 48 h, read-out: Activity.
Test [11] concerns OVCAR-8. Kind of test: Growth inhibition of human OVCAR8 cells assessed as cell growth at 10 uM after 48 hrs by sulforhodamine B assay. The conditions noted are these: OVCAR-8, 48 h, read-out: Activity.
Test [12] deals with SK-MEL-2. As to the kind of experiment: Growth inhibition of human SK-MEL-2 cells assessed as cell growth at 10 uM after 48 hrs by sulforhodamine B assay. Particulars: SK-MEL-2, 48 h, read-out: Activity.
In test [13] the test system is HCT-116. As to the kind of experiment: Growth inhibition of human HCT116 cells assessed as cell growth at 10 uM after 48 hrs by sulforhodamine B assay. Particulars: HCT-116, 48 h, read-out: Activity.
Test [14] deals with NCI-H460. Kind of test: Growth inhibition of human NCI-H460 cells assessed as cell growth at 10 uM after 48 hrs by sulforhodamine B assay. The conditions noted are these: NCI-H460, 48 h, read-out: Activity.
Test [15] deals with LOX IMVI. As to the kind of experiment: Growth inhibition of human LOXIMVI cells assessed as cell growth at 10 uM after 48 hrs by sulforhodamine B assay. Particulars: read-out: Activity.
The test system of test [16] is SNB-19. As to the kind of experiment: Growth inhibition of human SNB19 cells assessed as cell growth at 10 uM after 48 hrs by sulforhodamine B assay. Particulars: SNB-19, 48 h, read-out: Activity.
The test system of test [17] is COLO 205. Kind of test: Growth inhibition of human COLO205 cells assessed as cell growth at 10 uM after 48 hrs by sulforhodamine B assay. The conditions noted are these: COLO 205, 48 h, read-out: Activity.

Consider `COc1cc(-c2nn(-c3cccc(NC(=O)Nc4ccccc4)c3)cc2-c2ccncc2)ccc1Cl`, for which the growth at 10 µM came to 56.5% in [1]; 87.2% in test [2]; 57.7% in test [3]; 85.7% in test [4]; 93.1% in [5]; 81.2% in [6]. The growth at 10 µM was determined as 52.5% in test [7]; 84% in [8]; 100% in test [9]; 97.1% in test [10]; 77.9% in test [11]; 77% in test [12]. For the same compound, the growth at 10 µM in test [13] was 87.2%; in [14], 93.7%; in [15], 85.4%; in [16] it was 89.5%; in test [17] it was 92.4%.

Turning to `COc1cc(-c2nn(-c3cccc(NC(=O)c4ccc(Br)c(C)c4)c3)cc2-c2ccncc2)ccc1Cl`, the growth at 10 µM amounted to 53.8% in [1]; 91.8% in [2]; 52.7% in test [3]; 74.7% in test [4]; 85.9% in test [5]; 84.1% in [6]. The growth at 10 µM in test [7] was found to be 59.4%; in [8], 66.6%; in [9], 86.9%; in test [10], 90.8%; in test [11], 77.3%; in [12], 58.2%. Further, the growth at 10 µM stood at 70.3% in test [13]; 80.9% in test [14]; 75.4% in [15]; 83.6% in test [16]; 76.2% in test [17].

On to `O=C(Nc1cccc(-n2cc(-c3ccncc3)c(-c3ccc(Cl)c(O)c3)n2)c1)c1ccccc1`, for which the growth at 10 µM is 83.1% in [1]; 46.7% in [2]; 53.1% in test [3]; 54.9% in test [4]; 76.1% in test [5]; 68.3% in [6]. Besides, the growth at 10 µM in [7] is 50.3%; in test [8], 53.5%; in [9], 90.8%; in [10] it was 80.1%; in test [11], 50.9%; in [12] it was 67.9%. In addition, the growth at 10 µM in test [13] was determined as 57.8%; in test [14], 48.7%; in test [15], 68.5%; in test [16] it was 99.7%; in [17] it was 100%.

On to `Cc1cc(C(=O)Nc2cccc(-n3cc(-c4ccncc4)c(-c4ccc(Cl)c(O)c4)n3)c2)ccc1Br`, for which the growth at 10 µM in test [1] turned out to be 74.7%; in test [2] it was 98%; in test [3] it was 82.6%; in [4], 89.5%; in test [5], 106%; in test [6], 104%. The growth at 10 µM in [7] is 86.8%; in test [8], 107%; in test [9] it was 97.9%; in [10] it was 100%; in [11] it was 95.1%; in [12], 106%. For the same compound, the growth at 10 µM in test [13] came out at 94.4%; in [14] it was 108%; in test [15] it was 86.4%; in test [16] it was 115%; in [17], 102%.

With `O=C(Nc1cccc(-n2cc(-c3ccncc3)c(-c3ccc(Cl)c(O)c3)n2)c1)c1ccc(Cl)c(C(F)(F)F)c1`, the growth at 10 µM in test [1] is 81.2%; in test [2] it was 99.4%; in [3], 79.5%; in test [4], 82.5%; in [5] it was 108%; in [6], 98.1%. Further, the growth at 10 µM amounted to 85.7% in test [7]; 105% in test [8]; 105% in test [9]; 102% in test [10]; 96.8% in [11]; 93.7% in [12]. Also, the growth at 10 µM in test [13] came to 100%; in test [14], 104%; in [15], 91.3%; in test [16], 119%; in test [17], 104%.

The values are drawn from ChEMBL document CHEMBL2440076, “New triarylpyrazoles as broad-spectrum anticancer agents: design, synthesis, and biological evaluation” (Eur J Med Chem, 2013).
